Laboratory results reported in ChEMBL document CHEMBL1140500, “Arene cis-dihydrodiols: useful precursors for the preparation of analogues of the anti-tumour agent, 2-crotonyloxymethyl-(4R,5R,6R)-4,5,6-trihydroxycyclohex-2-enone (COTC)” (Bioorg Med Chem Lett, 2007).

Columns and labels:
A549 = assay: Cytotoxicity against human A549 cells assessed as surviving cells after 4 days by MTT assay; type: cell-based
NCI-H460 = assay: Cytotoxicity against human H460 cells assessed as surviving cells after 4 days by MTT assay; type: cell-based

| SMILES | IC50 (A549; a549) | IC50 (NCI-H460; nci-h460) | IC50 (A549; Homo sapiens, A549, 96 h) | IC50 (NCI-H460; Homo sapiens, NCI-H460, 96 h) |
| --- | --- | --- | --- | --- |
| C/C=C/C(=O)OCC1=CC(O)C2OC(C)(OC)C(C)(OC)OC2C1=O (racemic) | 30 µM | 18 µM | – | – |
| C/C=C/C(=O)OCC1=CC(O)C(O)C(O)C1=O (racemic) | 184 µM | 160 µM | – | – |
| C/C=C/C(=O)OCC1=CC(O)C2OC(C)(OC)C(C)(OC)OC2C1=O (single isomer, unassigned; (+)) | – | – | 60 µM | 36 µM |
| C/C=C/C(=O)OCC1=CC(O)C(O)C(O)C1=O (single isomer, unassigned; (-)) | – | – | 170 µM | 158 µM |
